Results: PMC10192418, “High-affinity peptides developed against calprotectin and their application as synthetic ligands in diagnostic assays” (Nature Communications, 2023)
pKd: −log10 of the molar value. Read-outs that look alike come from different tables or passages of the source. Numbered stars: 1 amine (or outer) side, 2 acyl side, 3 side chain; on linkers, the order of the positions; unused ones are H or OH. Bridge positions count the residues as written; N and C are the ends. Peptide text beside a SMILES is read from it. * marks the point of attachment. 5FAM = O=C1OC2(c3ccc(O)cc3Oc3cc(O)ccc32)c2ccc(C(=O)*)cc21; Pyridine(2,6-diCH2) = c1cc(C[*:1])nc(C[*:2])c1

Target: T1, calprotectin tetramer (recombinant B-RCAL, His6-linker-S100A9-linker-S100A8) (Homo sapiens, UniProt P05109)
T1 construct: we used the recombinant protein without removing the His-tag or cleaving the 8-amino acid linker between the two proteins; co-authors' company
T1 sequence (P05109 with tags, fused parts or gaps): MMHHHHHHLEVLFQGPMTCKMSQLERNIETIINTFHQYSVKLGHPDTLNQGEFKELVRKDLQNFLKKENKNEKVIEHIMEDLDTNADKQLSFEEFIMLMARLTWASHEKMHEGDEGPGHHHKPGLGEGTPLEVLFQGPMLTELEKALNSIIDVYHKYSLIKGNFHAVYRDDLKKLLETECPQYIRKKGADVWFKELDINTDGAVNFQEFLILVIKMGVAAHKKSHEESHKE
Experiment: Fluorescence polarization (FP) binding to recombinant calprotectin B-RCAL tetramer in presence of CaCl2
Protocol: Calprotectin was serially diluted in 20 mM HEPES, 100 mM NaCl, 2 mM CaCl2, pH 7.5, and 1 mM DTT with 0.01% (v/v) Tween-20. Volumes of 16 μL of protein were added to 4 μL of fluorescent peptide (20 nM final concentration) in black 384-well microtiter plates. Fluorescence anisotropy was measured on a microwell plate reader (Infinite M200Pro, Tecan) with filters for excitation at 485 nm and emission at 535 nm. The dissociation constant (Kd) was calculated using a following Eq. (1) using Prism 5 software (GraphPad):1 A=Af+Ab−Af×LT+KD+PT−LT+KD+PT^2−4LTPT/2LT where A is anisotropy, Af and Ab are the anisotropy values for free and bound ligands, respectively. [L]T is the concentration of the total fluorescent ligand and [P]T the concentration of the protein.

[1] = FP, alanine scan of linear peptide 3, 20 nM peptide, 2 mM CaCl2, one measurement, NB = non-binding

| Structure (SMILES) | pKd [1] | other results |
| --- | --- | --- |
| CSCC[C@@H]1NC(=O)[C@@H]2CCCN2C(=O)[C@H](Cc2ccccc2)NC(=O)[C@H](C)NC(=O)[C@H](C(C)C)NC(=O)[C@@H]2CSCC(=O)CSC[C@H](NC(=O)[C@H](CCC(N)=O)NC(=O)[C@H](Cc3ccccc3)NC1=O)C(=O)N[C@@H](Cc1c[nH]cn1)C(=O)N[C@@H](Cc1c[nH]c3ccccc13)C(=O)N[C@@H](Cc1ccc(O)cc1)C(=O)N[C@H](C(=O)NCC(N)=O)CSCC(=O)CSC[C@H](NC(=O)[C@H](CCCNC(=N)N)NC(=O)c1ccc3c(c1)C(=O)OC31c3ccc(O)cc3Oc3cc(O)ccc31)C(=O)N1CCC[C@H]1C(=O)N[C@@H](CCC(=O)O)C(=O)N2 (single isomer, unassigned) [Peptide 3 Isomer 3] | – | FP increase upon binding to calprotectin (FP, 2 mM CaCl2): 10–15% |
| CSCC[C@H](NC(=O)[C@@H]1CCCN1C(=O)[C@H](Cc1ccccc1)NC(=O)CNC(=O)[C@@H](NC(=O)[C@H](CO)NC(=O)[C@H](CCC(=O)O)NC(=O)[C@@H]1CCCN1C(=O)[C@H](CO)NC(=O)[C@H](CCCNC(=N)N)NC(=O)c1ccc2c(c1)C(=O)OC21c2ccc(O)cc2Oc2cc(O)ccc21)C(C)C)C(=O)N[C@@H](Cc1ccccc1)C(=O)N[C@@H](CCC(N)=O)C(=O)N[C@@H](CO)C(=O)N[C@@H](Cc1c[nH]cn1)C(=O)N[C@@H](Cc1c[nH]c2ccccc12)C(=O)N[C@@H](Cc1ccc(O)cc1)C(=O)N[C@@H](CO)C(=O)NCC(N)=O [Peptide A7G] (5FAM-RSPESVGFPMFQSHWYSG-NH2) | 7.54 | – |
| CSCC[C@@H]1NC(=O)[C@@H]2CCCN2C(=O)[C@H](Cc2ccccc2)NC(=O)[C@H](C)NC(=O)[C@H](C(C)C)NC(=O)[C@@H]2CSCC(=O)CSC[C@@H](C(=O)NCC(N)=O)NC(=O)[C@H](Cc3ccc(O)cc3)NC(=O)[C@H](Cc3c[nH]c4ccccc34)NC(=O)[C@H](Cc3c[nH]cn3)NC(=O)[C@H](CSCC(=O)CSC[C@H](NC(=O)[C@H](CCCNC(=N)N)NC(=O)c3ccc4c(c3)C(=O)OC43c4ccc(O)cc4Oc4cc(O)ccc43)C(=O)N3CCC[C@H]3C(=O)N[C@@H](CCC(=O)O)C(=O)N2)NC(=O)[C@H](CCC(N)=O)NC(=O)[C@H](Cc2ccccc2)NC1=O (single isomer, unassigned) [Peptide 3 Isomer 2] | – | FP increase upon binding to calprotectin (FP, 2 mM CaCl2): 10–15% |
| CSCC[C@H](NC(=O)[C@@H]1CCCN1C(=O)[C@H](Cc1ccccc1)NC(=O)[C@H](C)NC(=O)[C@@H](NC(=O)[C@H](CO)NC(=O)[C@H](CCC(=O)O)NC(=O)[C@@H]1CCCN1C(=O)[C@H](CO)NC(=O)[C@H](C)NC(=O)c1ccc2c(c1)C(=O)OC21c2ccc(O)cc2Oc2cc(O)ccc21)C(C)C)C(=O)N[C@@H](Cc1ccccc1)C(=O)N[C@@H](CCC(N)=O)C(=O)N[C@@H](CO)C(=O)N[C@@H](Cc1c[nH]cn1)C(=O)N[C@@H](Cc1c[nH]c2ccccc12)C(=O)N[C@@H](Cc1ccc(O)cc1)C(=O)N[C@@H](CO)C(=O)NCC(N)=O [Peptide R1A] (5FAM-ASPESVAFPMFQSHWYSG-NH2) | 7.49 | – |
| CSCC[C@H](NC(=O)[C@H](C)NC(=O)[C@H](Cc1ccccc1)NC(=O)[C@H](C)NC(=O)[C@@H](NC(=O)[C@H](CO)NC(=O)[C@H](CCC(=O)O)NC(=O)[C@@H]1CCCN1C(=O)[C@H](CO)NC(=O)[C@H](CCCNC(=N)N)NC(=O)c1ccc2c(c1)C(=O)OC21c2ccc(O)cc2Oc2cc(O)ccc21)C(C)C)C(=O)N[C@@H](Cc1ccccc1)C(=O)N[C@@H](CCC(N)=O)C(=O)N[C@@H](CO)C(=O)N[C@@H](Cc1c[nH]cn1)C(=O)N[C@@H](Cc1c[nH]c2ccccc12)C(=O)N[C@@H](Cc1ccc(O)cc1)C(=O)N[C@@H](CO)C(=O)NCC(N)=O [Peptide P9A] (5FAM-RSPESVAFAMFQSHWYSG-NH2) | 7.52 | – |
| CSCC[C@H](NC(=O)[C@@H]1CCCN1C(=O)[C@H](Cc1ccccc1)NC(=O)[C@H](C)NC(=O)[C@H](C)NC(=O)[C@H](CO)NC(=O)[C@H](CCC(=O)O)NC(=O)[C@@H]1CCCN1C(=O)[C@H](CO)NC(=O)[C@H](CCCNC(=N)N)NC(=O)c1ccc2c(c1)C(=O)OC21c2ccc(O)cc2Oc2cc(O)ccc21)C(=O)N[C@@H](Cc1ccccc1)C(=O)N[C@@H](CCC(N)=O)C(=O)N[C@@H](CO)C(=O)N[C@@H](Cc1c[nH]cn1)C(=O)N[C@@H](Cc1c[nH]c2ccccc12)C(=O)N[C@@H](Cc1ccc(O)cc1)C(=O)N[C@@H](CO)C(=O)NCC(N)=O [Peptide V6A] (5FAM-RSPESAAFPMFQSHWYSG-NH2) | 7.41 | – |
| CC[C@H](C)[C@@H]1NC(=O)[C@H](CO)NC(=O)[C@H](Cc2c[nH]c3ccccc23)NC(=O)[C@H](CCCNC(=N)N)NC(=O)[C@@H](NC(=O)[C@H](Cc2ccccc2)NC(=O)[C@@H]2CCCN2C(=O)c2ccc3c(c2)C(=O)OC32c3ccc(O)cc3Oc3cc(O)ccc32)CSCc2cccc(n2)CSC[C@@H](C(=O)N[C@@H](Cc2c[nH]cn2)C(N)=O)NC(=O)[C@H](CC(N)=O)NC(=O)[C@H](CC(=O)O)NC1=O [Peptide 9] (5FAM-PFCRWSIDNCH-NH2; linker 3-10 via Pyridine(2,6-diCH2)) | – | pKd (from fluorescence anisotropy titration, SI Figure 3): 4.54 |
| CSCC[C@H](NC(=O)[C@@H]1CCCN1C(=O)[C@H](Cc1ccccc1)NC(=O)[C@H](C)NC(=O)[C@@H](NC(=O)[C@H](CO)NC(=O)[C@H](CCC(=O)O)NC(=O)[C@@H]1CCCN1C(=O)[C@H](CO)NC(=O)[C@H](CCCNC(=N)N)NC(=O)c1ccc2c(c1)C(=O)OC21c2ccc(O)cc2Oc2cc(O)ccc21)C(C)C)C(=O)N[C@@H](Cc1ccccc1)C(=O)N[C@@H](CCC(N)=O)C(=O)N[C@@H](CO)C(=O)N[C@@H](Cc1c[nH]cn1)C(=O)N[C@@H](C)C(=O)N[C@@H](Cc1ccc(O)cc1)C(=O)N[C@@H](CO)C(=O)NCC(N)=O [Peptide W15A] (5FAM-RSPESVAFPMFQSHAYSG-NH2) | 7.62 | – |
| CSCC[C@H](NC(=O)[C@@H]1CCCN1C(=O)[C@H](Cc1ccccc1)NC(=O)[C@H](C)NC(=O)[C@@H](NC(=O)[C@H](CO)NC(=O)[C@H](CCC(=O)O)NC(=O)[C@@H]1CCCN1C(=O)[C@H](CO)NC(=O)[C@H](CCCNC(=N)N)NC(=O)c1ccc2c(c1)C(=O)OC21c2ccc(O)cc2Oc2cc(O)ccc21)C(C)C)C(=O)N[C@@H](Cc1ccccc1)C(=O)N[C@@H](CCC(N)=O)C(=O)N[C@H]1CSCC(=O)CSC[C@@H](C(=O)NCC(N)=O)NC(=O)[C@H](Cc2ccc(O)cc2)NC(=O)[C@H](Cc2c[nH]c3ccccc23)NC(=O)[C@H](Cc2c[nH]cn2)NC1=O (single isomer, unassigned) [Peptide 3 Isomer 1b] | – | pKd: 7.75 |
| CSCC[C@H](NC(=O)[C@@H]1CCCN1C(=O)[C@H](Cc1ccccc1)NC(=O)[C@H](C)NC(=O)[C@@H](NC(=O)[C@H](CO)NC(=O)[C@H](CCC(=O)O)NC(=O)[C@H](C)NC(=O)[C@H](CO)NC(=O)[C@H](CCCNC(=N)N)NC(=O)c1ccc2c(c1)C(=O)OC21c2ccc(O)cc2Oc2cc(O)ccc21)C(C)C)C(=O)N[C@@H](Cc1ccccc1)C(=O)N[C@@H](CCC(N)=O)C(=O)N[C@@H](CO)C(=O)N[C@@H](Cc1c[nH]cn1)C(=O)N[C@@H](Cc1c[nH]c2ccccc12)C(=O)N[C@@H](Cc1ccc(O)cc1)C(=O)N[C@@H](CO)C(=O)NCC(N)=O [Peptide P3A] (5FAM-RSAESVAFPMFQSHWYSG-NH2) | 7.55 | – |
| CSCC[C@H](NC(=O)[C@@H]1CCCN1C(=O)[C@H](Cc1ccccc1)NC(=O)[C@H](C)NC(=O)[C@@H](NC(=O)[C@H](CO)NC(=O)[C@H](C)NC(=O)[C@@H]1CCCN1C(=O)[C@H](CO)NC(=O)[C@H](CCCNC(=N)N)NC(=O)c1ccc2c(c1)C(=O)OC21c2ccc(O)cc2Oc2cc(O)ccc21)C(C)C)C(=O)N[C@@H](Cc1ccccc1)C(=O)N[C@@H](CCC(N)=O)C(=O)N[C@@H](CO)C(=O)N[C@@H](Cc1c[nH]cn1)C(=O)N[C@@H](Cc1c[nH]c2ccccc12)C(=O)N[C@@H](Cc1ccc(O)cc1)C(=O)N[C@@H](CO)C(=O)NCC(N)=O [Peptide E4A] (5FAM-RSPASVAFPMFQSHWYSG-NH2) | 7.59 | – |
